{
  "source": "ChEMBL document CHEMBL1132272",
  "about": "“Prediction of ligand-receptor binding thermodynamics by free energy force field three-dimensional quantitative structure-activity relationship analysis: applications to a set of glucose analogue inhibitors of glycogen phosphorylase” (J Med Chem, 1999)",
  "data": [
    {"experiment": "The compound was evaluated for the inhibition of glycogen phosphorylase", "units": {"Ki": "µM"}, "values": [
      {"smiles": "NCC1OC(CO)C(O)C(O)C1O", "note": "(stereo unspecified)", "Ki": 34500},
      {"smiles": "CO[C@@H]1O[C@H](CO)[C@H](O)[C@H](O)[C@H]1O", "Ki": 24700},
      {"smiles": "OCC1OC(S)C(O)C(O)C1O", "note": "(stereo unspecified)", "Ki": 1000},
      {"smiles": "CC1OC(CO)C(O)C(O)C1O", "note": "(stereo unspecified)", "Ki": 53100},
      {"smiles": "NC(=O)C1OC(CO)C(O)C(O)C1O", "note": "(stereo in doubt; 10)", "Ki": 370},
      {"smiles": "NNC(=O)[C@@H]1O[C@H](CO)[C@@H](O)[C@H](O)[C@H]1O", "Ki": 980},
      {"smiles": "NC(=O)C1OC(CO)C(O)C(O)C1O", "note": "(stereo in doubt; 11)", "Ki": 440},
      {"smiles": "CCC(=O)N[C@H]1O[C@H](CO)[C@@H](O)[C@H](O)[C@H]1O", "Ki": 39},
      {"smiles": "N#CC[C@@H]1O[C@H](CO)[C@@H](O)[C@H](O)[C@H]1O", "Ki": 9000},
      {"smiles": "NCC(=O)N[C@H]1O[C@@H](CO)[C@@H](O)[C@H](O)[C@@H]1O", "Ki": 370},
      {"smiles": "CC(=O)N[C@H]1O[C@H](CO)[C@@H](O)[C@H](O)[C@H]1O", "Ki": 32},
      {"smiles": "CNC(=O)C1OC(CO)C(O)C(O)C1O", "note": "(stereo in doubt; 8)", "Ki": 160},
      {"smiles": "NC(=O)N[C@H]1O[C@H](CO)[C@@H](O)[C@H](O)[C@H]1O", "Ki": 140},
      {"smiles": "CNC(=O)C1OC(CO)C(O)C(O)C1O", "note": "(stereo in doubt; 22)", "Ki": 36700},
      {"smiles": "O=C(CBr)N[C@H]1O[C@@H](CO)[C@@H](O)[C@H](O)[C@@H]1O", "Ki": 44},
      {"smiles": "OC[C@H]1O[C@](O)(CO)[C@@H](O)[C@H](O)[C@H]1O", "Ki": 15800},
      {"smiles": "O=C(Nc1ccccc1)C1OC(CO)C(O)C(O)C1O", "note": "(stereo unspecified)", "Ki": 5400},
      {"smiles": "O=C(N[C@H]1O[C@H](CO)[C@@H](O)[C@H](O)[C@H]1O)c1ccccc1", "Ki": 81},
      {"smiles": "OCC1OC(CO)C(O)C(O)C1O", "note": "(stereo unspecified)", "Ki": 1500},
      {"smiles": "CCCC(=O)N[C@H]1O[C@H](CO)[C@@H](O)[C@H](O)[C@H]1O", "Ki": 94},
      {"smiles": "O=C(CCl)N[C@H]1O[C@H](CO)[C@@H](O)[C@H](O)[C@H]1O", "Ki": 45}
    ]}
  ]
}
